This is an account of results in patent US20240425484A1, “INHIBITORS OF TYK2” (Atomwise Inc., priority 2023, published 2024).

A short description of data set [1]: Brain exposure pharmacokinetic study in Sprague Dawley rats. As to conditions: male Sprague Dawley rats, oral gavage 10 mg/kg, plasma, CSF. The class given is in vivo, rat. As to the method: The brain exposure of exemplary compounds, e.g., 1, 2, and 4 were evaluated in male Sprague Dawley rats after oral gavage administration at 10 mg/kg. The formulation was 5% DMSO+10% PEG400 in saline. Rats were fasted overnight with food returned 4 hours post-dose. CSF was collected by direct needle puncture into the cisterna magna.
(§1) For both rat and mouse studies, brain tissue was washed with 3 volumes of saline prior to homogenization. Brain tissue was homogenized with 3 volumes (v/w) of phosphate buffered saline. Plasma, brain homogenate, and CSF samples (rat only) were analyzed by LC-MS/MS and the concentration of test compound at each time point was determined by linear regression.
(§2) Pharmacokinetic parameters were calculated from the plasma, brain, and CSF concentrations by non-compartmental modeling using WinNonlin 8.2.

Data set [2] has as its target T1, TYK2-JH2 (Homo sapiens, UniProt P29597).
T1 construct: TYK JH2 enzyme mix (ChemPartner: CP20210818A-BV); purchased ChemPartner CP20210818A-BV
Briefly: TYK2-JH2 HTRF binding assay (ligand efficiency). The settings on record: calculated (Equation 1) from IC50 of the TYK-JH2 binding assay. As to the method:
The following example describes the TYK2-JH2 HTRF binding assay used to determine the ligand efficiency of the TYK2 inhibitors.
To calculate ligand efficiency, Equation 1 is applied: […]
in which IC50 comes from the binding assay used to determine compound potency.
TYK JH2 enzyme mix (ChemPartner: CP20210818A-BV), tracer (ChemPartner: CP-0029472-051) and mAb Anti-6HIS Tb cryptate Gold (Cisbio: Cat No. 61HI2TLA) mix were prepared in assay buffer (10 mM MgCl2, 20 mM HEPES pH 7.5, 0.01% Triton X-100, 1 mM DTT). Compounds diluted in DMSO (Final Concentrations 0.1 to 0.000005 [μM]) and enzyme mix (0.5 nM Final Concentration) were added to 384 well plates, briefly centrifuged and incubated at room temperature for 10 minutes. After incubation, tracer mix (Tracer-35 nM final concentration); (MAb Anti-6HIS Tb cryptate Gold-0.5X final)) was added, briefly centrifuged then incubate at room temperature 60 minutes. After incubation, plates were read by Envision TR-FRET (Ex340/Em495/520) protocol (PerkinElmer-Envision 2104 multilabel plate reader).

Data set [3] in a line: Mouse pharmacokinetic study, oral administration. It is filed as in vivo. The settings on record: male, mouse plasma, PO at 5 mg/kg; for half-life: read-out: Half-life t1/2; for Cmax: read-out: Maximum plasma concentration Cmax; for AUC(0-inf): read-out: Total systemic exposure AUCinf. As to the method: The following example describes the methods used to evaluate the pharmacokinetics of TYK2 inhibitors in vivo following dosing of a compound of the invention.
The pharmacokinetics of test compounds were evaluated in either male CD-1 mice or male C57BL/6 mice when administered by oral gavage and IV bolus injection. The animals were allowed free access to food and water before administration. The plasma samples were analyzed by LC-MS/MS and the concentration of test compound at each time point was determined by linear regression. Pharmacokinetic parameters were calculated from the plasma concentrations by non-compartmental modeling using WinNonlin 8.2.
Oral composition. To prepare a pharmaceutical composition for oral delivery, the test articles described herein were dissolved in DMSO and then mixed with necessary volume of PEG400 followed by 0.9% sterile saline or 5% dextrose in water or 5% Kolliphor HS 15 in saline to provide the final concentrations of 0.5 mg/mL or 1 mg/mL (Table 8). The resultant mixtures were suitable for oral administration.
The PK parameters measured in mouse plasma after treatment with TYK2 inhibitor compounds via PO (oral administration) at 5 mg/kg are summarized below in Tables 9-11.

A short description of data set [4]: Brain exposure pharmacokinetic study in C57BL/6 mice. The class given is in vivo, mouse. As to conditions: male C57BL/6 mice, oral gavage 5 mg/kg, plasma. As to the method:
The brain exposure of 18 was evaluated in male C57BL/6 mice after oral gavage administration at 5 mg/kg. The formulation was 10% DMSO+40% PEG400 in saline. Mice were provided free access to food and water without fasting. Terminal sample collection of plasma and brain tissue were collected at […], 0.25, 0.5, 1, 2, and 4 hours post-dose with n=3 at each timepoint.
as §1, §2

T1 sequence (P29597 589-875 limits assumed): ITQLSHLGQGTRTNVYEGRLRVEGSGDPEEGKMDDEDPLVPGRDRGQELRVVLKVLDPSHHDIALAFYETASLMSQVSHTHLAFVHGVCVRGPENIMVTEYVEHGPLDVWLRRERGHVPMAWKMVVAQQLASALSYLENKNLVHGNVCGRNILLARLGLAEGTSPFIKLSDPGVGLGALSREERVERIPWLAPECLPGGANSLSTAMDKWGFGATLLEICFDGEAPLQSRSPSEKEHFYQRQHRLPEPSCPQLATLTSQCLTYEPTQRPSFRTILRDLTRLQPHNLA

For `C[C@@H](c1ccc(Nc2cc(Nc3ncccc3S(C)(=O)=O)ncn2)nc1)N1CC2(COC2)C1` [Compound 1, (S)—N^4-(5-(1-(2-oxa-6-azaspiro[3.3]heptan-6-yl)ethyl)pyridin-2-yl)-N^6-(3-(methylsulfonyl)pyridin-2-yl)pyrimidine-4,6-diamine], the “Brain Kpu, u” value in data set [1] is reported as “†† (††0.1-0.2 u)”. The “Ligand Efficiency” value in data set [2] was “††† (†††: >0.39)”. Also, in data set [3], the half-life lay within 1 to 1.5 h, the Cmax is less than 800 ng/mL and the AUC(0-inf) was in the range of 1000 to 2000 ng·h/mL.

For the compound `C[C@@H](c1ccc(Nc2cc(Nc3ncc(F)cc3S(C)(=O)=O)ncn2)nc1)N1CC2(COC2)C1` [Compound 2, (S)—N^4-(5-(1-(2-oxa-6-azaspiro[3.3]heptan-6-yl)ethyl)pyridin-2-yl)-N^6-(5-fluoro-3-(methylsulfonyl)pyridin-2-yl)pyrimidine-4,6-diamine], the “Brain Kpu, u” value in data set [1] was “† (†<0.1 u)”. In addition, in data set [2], the “Ligand Efficiency” value is “††† (†††: >0.39)”. In data set [3], the half-life was in the range of 1 to 1.5 h, the Cmax was greater than 1500 ng/mL and the AUC(0-inf) was greater than 2000 ng·h/mL.

For `C[C@@H](c1ccc(Nc2cc(Nc3ncccc3S(C)(=O)=O)ncn2)nc1)N(C)C` [Compound 4, (S)—N^4-(5-(1-(dimethylamino)ethyl)pyridin-2-yl)-N^6-(3-(methylsulfonyl)pyridin-2-yl)pyrimidine-4,6-diamine], the “Brain Kpu, u” value in data set [1] is on record as “††† (††† >0.2 u)”. The “Ligand Efficiency” value in data set [2] was “††† (†††: >0.39)”. Further, in data set [3], the half-life was in the range of 1 to 1.5 h, the Cmax is less than 800 ng/mL and the AUC(0-inf) was less than 1000 ng·h/mL.

On to `Cc1cccc(Nc2cc(Nc3ncccc3S(C)(=O)=O)ncn2)n1` [Compound 18, N^4-(6-methylpyridin-2-yl)-N^6-(3-(methylsulfonyl)pyridin-2-yl)pyrimidine-4,6-diamine], for which the “Brain Kpu, u” value in data set [4] is listed as “††† (††† >0.2 u)”. Moreover, the “Ligand Efficiency” value in data set [2] is “††† (†††: >0.39)”.

`Cc1ccnc(Nc2cc(Nc3ccccc3S(C)(=O)=O)ncn2)c1` [Compound 44, N^4-(4-methylpyridin-2-yl)-N^6-(2-(methylsulfonyl)phenyl)pyrimidine-4,6-diamine]: in data set [2], the “Ligand Efficiency” value was “††† (†††: >0.39)”. Besides, in data set [3], the half-life was greater than 1.5 h, the Cmax is less than 800 ng/mL and the AUC(0-inf) is less than 1000 ng·h/mL.
